# Measurements from PubChem BioAssay AID1963447 (Molecular Pharmacology Branch, DTP, NCI, 2024).
# pIC50: −log10 of the molar value. “And” between values parts separate entries of the source, which are not always exact repeats. Identical values can stand only once.
# Tested on: 885512-296-R-J2-PDC complex spheroid growth, % test/control
# Experiment: Anticancer human tumor 885512-296-R-J2-PDC patient-derived breast carcinoma cell line growth inhibition [Asc]
# Details: for viability, T/C: stronger effect = lower value
# In short: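 Tumor cells were grown as multicellular spheroids with stromal HUVEC and mesenchymal stem cells and treated singly or in combination. Concentrations fell in half-log steps from the clinical Cmax, or from 10 microM where none was known.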
# 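Also: spheroids exposed to compounds for seven days.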
# 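For viability, T/C in this document: 100% = DMSO vehicle control wells.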
compound,measurement,setting,value
NC(=O)C(=Cn1cnc(-c2cc(C(F)(F)F)cc(C(F)(F)F)c2)n1)c1cncnc1 + CCN1C(C(=O)NC23CCC(C(=O)O)(CC2)CC3)C(c2cccc(Cl)c2F)C2(C(=O)Nc3cc(Cl)ccc32)C12CCCCC2,pIC50,"curve of first compound, second compound 0.03 µM",7.35
same,pIC50,"curve of first compound, second compound 0.0949 µM",7.36
same,pIC50,"curve of first compound, second compound 0.3 µM",7.37
same,pIC50,"curve of first compound, second compound 0.949 µM",7.40
same,pIC50,"curve of first compound, second compound 3 µM",9.02
same,"viability, T/C","second compound 0.03 µM, first compound 0.000949 µM",108%
same,"viability, T/C","second compound 0.03 µM, first compound 0.003 µM",95.1%
same,"viability, T/C","second compound 0.03 µM, first compound 0.00949 µM",111%
same,"viability, T/C","second compound 0.03 µM, first compound 0.03 µM",72.4%
same,"viability, T/C","second compound 0.03 µM, first compound 0.0949 µM",9.51%
same,"viability, T/C","second compound 0.03 µM, first compound 0.3 µM",1.11%
same,"viability, T/C","second compound 0.0949 µM, first compound 0.000949 µM",98.6%
same,"viability, T/C","second compound 0.0949 µM, first compound 0.003 µM",93.7%
same,"viability, T/C","second compound 0.0949 µM, first compound 0.00949 µM",113%
same,"viability, T/C","second compound 0.0949 µM, first compound 0.03 µM",72.2%
same,"viability, T/C","second compound 0.0949 µM, first compound 0.0949 µM",6.79%
same,"viability, T/C","second compound 0.0949 µM, first compound 0.3 µM",0.89%
same,"viability, T/C","second compound 0.3 µM, first compound 0.000949 µM",74.4%
same,"viability, T/C","second compound 0.3 µM, first compound 0.003 µM",91%
same,"viability, T/C","second compound 0.3 µM, first compound 0.00949 µM",92.2%
same,"viability, T/C","second compound 0.3 µM, first compound 0.03 µM",69.3%
same,"viability, T/C","second compound 0.3 µM, first compound 0.0949 µM",6.76%
same,"viability, T/C","second compound 0.3 µM, first compound 0.3 µM",0.83%
same,"viability, T/C","second compound 0.949 µM, first compound 0.000949 µM",70.3%
same,"viability, T/C","second compound 0.949 µM, first compound 0.003 µM",72.2%
same,"viability, T/C","second compound 0.949 µM, first compound 0.00949 µM",80.9%
same,"viability, T/C","second compound 0.949 µM, first compound 0.03 µM",63.4%
same,"viability, T/C","second compound 0.949 µM, first compound 0.0949 µM",6.15%
same,"viability, T/C","second compound 0.949 µM, first compound 0.3 µM",1.27%
same,"viability, T/C","second compound 3 µM, first compound 0.000949 µM",42.7%
same,"viability, T/C","second compound 3 µM, first compound 0.003 µM",48.9%
same,"viability, T/C","second compound 3 µM, first compound 0.00949 µM",48.3%
same,"viability, T/C","second compound 3 µM, first compound 0.03 µM",55%
same,"viability, T/C","second compound 3 µM, first compound 0.0949 µM",4.94%
same,"viability, T/C","second compound 3 µM, first compound 0.3 µM",0.76%
Cc1nc(N2CCC3(CC2)COC(C)C3N)c(CO)nc1Sc1ccnc(N)c1Cl (configuration not stated) + CNC(C)C(=O)NC1CN(S(=O)(=O)c2cccc(S(=O)(=O)N3CCC4CCC(C(=O)NC(c5ccccc5)c5ccccc5)N4C(=O)C(NC(=O)C(C)NC)C3)c2)CCC2CCC(C(=O)NC(c3ccccc3)c3ccccc3)N2C1=O,pIC50,"curve of first compound, second compound 0.01 µM",6.77
same,pIC50,"curve of first compound, second compound 0.0316 µM",6.63
same,pIC50,"curve of first compound, second compound 0.1 µM",6.70
same,pIC50,"curve of first compound, second compound 0.316 µM",6.56
same,pIC50,"curve of first compound, second compound 1 µM",6.57
same,"viability, T/C","second compound 0.01 µM, first compound 0.00949 µM",90.9%
same,"viability, T/C","second compound 0.01 µM, first compound 0.03 µM",73.2%
same,"viability, T/C","second compound 0.01 µM, first compound 0.0949 µM",54%
same,"viability, T/C","second compound 0.01 µM, first compound 0.3 µM",45.3%
same,"viability, T/C","second compound 0.01 µM, first compound 0.949 µM",43.4%
same,"viability, T/C","second compound 0.01 µM, first compound 3 µM",38.7%
same,"viability, T/C","second compound 0.0316 µM, first compound 0.00949 µM",90.1%
same,"viability, T/C","second compound 0.0316 µM, first compound 0.03 µM",77%
same,"viability, T/C","second compound 0.0316 µM, first compound 0.0949 µM",59.3%
same,"viability, T/C","second compound 0.0316 µM, first compound 0.3 µM",47.3%
same,"viability, T/C","second compound 0.0316 µM, first compound 0.949 µM",43.1%
same,"viability, T/C","second compound 0.0316 µM, first compound 3 µM",39.5%
same,"viability, T/C","second compound 0.1 µM, first compound 0.00949 µM",102%
same,"viability, T/C","second compound 0.1 µM, first compound 0.03 µM",91.7%
same,"viability, T/C","second compound 0.1 µM, first compound 0.0949 µM",60.1%
same,"viability, T/C","second compound 0.1 µM, first compound 0.3 µM",46.3%
same,"viability, T/C","second compound 0.1 µM, first compound 0.949 µM",39.9%
same,"viability, T/C","second compound 0.1 µM, first compound 3 µM",39.9%
same,"viability, T/C","second compound 0.316 µM, first compound 0.00949 µM",120%
same,"viability, T/C","second compound 0.316 µM, first compound 0.03 µM",107%
same,"viability, T/C","second compound 0.316 µM, first compound 0.0949 µM",70.3%
same,"viability, T/C","second compound 0.316 µM, first compound 0.3 µM",50.4%
same,"viability, T/C","second compound 0.316 µM, first compound 0.949 µM",41.8%
same,"viability, T/C","second compound 0.316 µM, first compound 3 µM",38.9%
same,"viability, T/C","second compound 1 µM, first compound 0.00949 µM",114%
same,"viability, T/C","second compound 1 µM, first compound 0.03 µM",112%
same,"viability, T/C","second compound 1 µM, first compound 0.0949 µM",71.8%
same,"viability, T/C","second compound 1 µM, first compound 0.3 µM",52.7%
same,"viability, T/C","second compound 1 µM, first compound 0.949 µM",41.1%
same,"viability, T/C","second compound 1 µM, first compound 3 µM",38.7%
O=C(c1ccc(F)c(F)c1Nc1ccc(I)cc1F)N1CC(O)([C@@H]2CCCCN2)C1,"viability, T/C",compound 0.00316 µM,94% and 88.7% and 94.3%
same,"viability, T/C",compound 0.01 µM,89.3% and 77.1% and 88.9%
same,"viability, T/C",compound 0.0316 µM,73.9% and 62.5% and 68.7%
same,"viability, T/C",compound 0.1 µM,69.7% and 54.8% and 47.7%
same,"viability, T/C",compound 0.316 µM,45.6% and 36.5% and 35.7%
same,"viability, T/C",compound 1 µM,18.4% and 15.1% and 17.1%
same,pIC50,curve of compound,6.59 and 6.95 and 6.99
